# Data published in article PMC4858151, “Phosphorylation of Human Choline Kinase Beta by Protein Kinase A: Its Impact on Activity and Inhibition” (PLoS ONE, 2016).
# Target: T1, choline kinase beta (CKβ) (Homo sapiens, UniProt Q9Y259)
# T1 construct: gene CHKB; recombinant CKβ, in vitro phosphorylated by PKA (Ser39/Ser40)
# Test: PK-LDH coupled enzyme assay, IC50 at […] choline converted to Ki
# Assay type: biochemical
# T1 sequence (Q9Y259 2-395): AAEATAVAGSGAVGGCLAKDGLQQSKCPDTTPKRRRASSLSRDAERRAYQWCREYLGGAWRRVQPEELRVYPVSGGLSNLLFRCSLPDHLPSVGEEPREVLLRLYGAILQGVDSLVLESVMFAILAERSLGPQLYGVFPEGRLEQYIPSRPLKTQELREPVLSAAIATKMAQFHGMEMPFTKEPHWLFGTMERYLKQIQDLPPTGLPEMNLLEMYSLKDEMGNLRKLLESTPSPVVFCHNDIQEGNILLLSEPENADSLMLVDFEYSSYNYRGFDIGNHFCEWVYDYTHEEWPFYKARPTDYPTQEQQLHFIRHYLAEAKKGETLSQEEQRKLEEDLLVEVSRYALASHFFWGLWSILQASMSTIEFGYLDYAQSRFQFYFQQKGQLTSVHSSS
structure (smiles),measurement,value
"C[N+]1(C)CCOC(O)(c2ccc(-c3ccc(C4(O)C[N+](C)(C)CCO4)cc3)cc2)C1 (stereo not shown) [HC-3, Hemicholinium-3]",Ki,4.7 µM
